Holding throughout (test): Nanosyn kinase profiling
Assay type in all cases: biochemical
Common to all, as to settings: read-out: Percentage inhibition; for inhibition at 0.1 µM: 0.1 µM inhibitor; for inhibition at 1 µM: 1 µM inhibitor

Test [1] has as its target T1, MAPK1 (Homo sapiens, UniProt P28482).
T1 construct: purchased Nanosyn (enzymatic panel); SGC in-house recombinant human kinases (DSF panel); Invitrogen (ALK1-6)
Put shortly: (§1)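 Percent inhibition of each kinase was measured with the inhibitor at 0.1 µM and at 1 µM, as part of a 200-kinase human selectivity panel.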

Test [2] has as its target T2, BMX (Homo sapiens, UniProt P51813).
T2 construct: purchased Nanosyn (enzymatic panel); SGC in-house recombinant human kinases (DSF panel); Invitrogen (ALK1-6)
T2 sequence (P51813 1-675): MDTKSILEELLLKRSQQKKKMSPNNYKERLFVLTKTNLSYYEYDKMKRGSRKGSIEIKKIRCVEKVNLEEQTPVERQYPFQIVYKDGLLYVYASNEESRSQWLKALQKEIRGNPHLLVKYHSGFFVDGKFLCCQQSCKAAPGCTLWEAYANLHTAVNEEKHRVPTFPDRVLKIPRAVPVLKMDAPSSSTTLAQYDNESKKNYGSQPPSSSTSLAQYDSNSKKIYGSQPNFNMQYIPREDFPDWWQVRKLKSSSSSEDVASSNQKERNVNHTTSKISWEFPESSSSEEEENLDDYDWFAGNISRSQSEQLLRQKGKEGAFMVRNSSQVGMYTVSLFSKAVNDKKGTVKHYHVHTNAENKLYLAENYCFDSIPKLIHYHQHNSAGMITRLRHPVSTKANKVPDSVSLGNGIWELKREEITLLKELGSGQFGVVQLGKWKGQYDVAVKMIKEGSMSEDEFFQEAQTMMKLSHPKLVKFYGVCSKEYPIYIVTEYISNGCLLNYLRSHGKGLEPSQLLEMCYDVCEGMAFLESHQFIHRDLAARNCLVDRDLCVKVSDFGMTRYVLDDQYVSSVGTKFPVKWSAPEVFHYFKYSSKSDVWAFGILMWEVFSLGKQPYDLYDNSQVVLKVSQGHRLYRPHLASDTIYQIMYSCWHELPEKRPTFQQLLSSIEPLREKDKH
Put shortly:
as §1

Test [3] addresses T3, EPHB3 (Homo sapiens, UniProt P54753).
T3 construct: purchased Nanosyn (enzymatic panel); SGC in-house recombinant human kinases (DSF panel); Invitrogen (ALK1-6)
T3 sequence (P54753 34-998): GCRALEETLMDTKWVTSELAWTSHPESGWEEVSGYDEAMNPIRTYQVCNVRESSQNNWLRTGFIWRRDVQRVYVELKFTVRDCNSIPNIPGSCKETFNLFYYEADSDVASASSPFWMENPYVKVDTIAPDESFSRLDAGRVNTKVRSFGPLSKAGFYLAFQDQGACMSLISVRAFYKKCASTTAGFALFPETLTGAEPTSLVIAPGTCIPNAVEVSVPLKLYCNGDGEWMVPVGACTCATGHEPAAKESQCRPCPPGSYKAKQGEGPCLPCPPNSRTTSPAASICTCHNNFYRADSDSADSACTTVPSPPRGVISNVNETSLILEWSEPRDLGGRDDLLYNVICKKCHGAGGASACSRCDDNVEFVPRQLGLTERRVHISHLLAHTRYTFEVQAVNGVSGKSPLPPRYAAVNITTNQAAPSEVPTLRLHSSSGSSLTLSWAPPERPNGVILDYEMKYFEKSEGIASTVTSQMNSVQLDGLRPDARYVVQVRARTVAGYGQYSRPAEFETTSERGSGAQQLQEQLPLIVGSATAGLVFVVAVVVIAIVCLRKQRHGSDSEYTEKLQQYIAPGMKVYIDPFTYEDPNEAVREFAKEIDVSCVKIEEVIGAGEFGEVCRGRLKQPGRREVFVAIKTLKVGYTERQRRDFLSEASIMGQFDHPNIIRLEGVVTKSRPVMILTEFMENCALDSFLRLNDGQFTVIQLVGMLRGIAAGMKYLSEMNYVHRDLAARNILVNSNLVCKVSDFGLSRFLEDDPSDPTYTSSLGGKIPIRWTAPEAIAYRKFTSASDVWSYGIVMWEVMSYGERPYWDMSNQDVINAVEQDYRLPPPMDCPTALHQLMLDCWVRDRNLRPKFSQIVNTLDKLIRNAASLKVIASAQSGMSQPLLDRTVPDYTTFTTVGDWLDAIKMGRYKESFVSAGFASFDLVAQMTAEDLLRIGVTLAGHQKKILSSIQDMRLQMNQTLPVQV
Put shortly:
as §1

In test [4] the target is T4, MSK2 (Homo sapiens, UniProt O75676).
T4 construct: purchased Nanosyn (enzymatic panel); SGC in-house recombinant human kinases (DSF panel); Invitrogen (ALK1-6)
An outline of the steps: as §1

The target in test [5] is T5, HIPK4 (Homo sapiens, UniProt Q8NE63).
T5 construct: purchased Nanosyn (enzymatic panel); SGC in-house recombinant human kinases (DSF panel); Invitrogen (ALK1-6)
T5 sequence (Q8NE63 1-616): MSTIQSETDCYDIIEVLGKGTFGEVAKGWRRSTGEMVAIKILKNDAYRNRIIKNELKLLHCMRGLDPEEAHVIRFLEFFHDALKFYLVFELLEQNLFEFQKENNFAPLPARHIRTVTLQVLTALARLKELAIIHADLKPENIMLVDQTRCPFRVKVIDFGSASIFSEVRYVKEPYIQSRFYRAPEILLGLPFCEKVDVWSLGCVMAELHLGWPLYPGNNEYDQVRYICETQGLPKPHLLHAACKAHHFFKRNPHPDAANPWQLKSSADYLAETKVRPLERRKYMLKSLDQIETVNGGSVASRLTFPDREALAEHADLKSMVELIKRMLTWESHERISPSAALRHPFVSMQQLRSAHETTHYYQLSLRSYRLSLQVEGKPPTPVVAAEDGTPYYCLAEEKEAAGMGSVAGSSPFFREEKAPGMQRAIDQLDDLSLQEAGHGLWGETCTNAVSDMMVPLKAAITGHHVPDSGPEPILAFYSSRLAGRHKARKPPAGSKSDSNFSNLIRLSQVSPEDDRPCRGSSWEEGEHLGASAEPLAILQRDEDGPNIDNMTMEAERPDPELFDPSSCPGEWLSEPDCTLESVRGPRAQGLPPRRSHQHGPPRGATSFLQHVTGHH
Put shortly: as §1

In test [6] the target is T6, RON (Homo sapiens, UniProt Q04912).
T6 construct: purchased Nanosyn (enzymatic panel); SGC in-house recombinant human kinases (DSF panel); Invitrogen (ALK1-6)
An outline of the steps: as §1

Test [7] has as its target T7, CAMK2α (Homo sapiens, UniProt Q9UQM7).
T7 construct: purchased Nanosyn (enzymatic panel); SGC in-house recombinant human kinases (DSF panel); Invitrogen (ALK1-6)
An outline of the steps: as §1

The structures appear in SMILES notation.

T1 sequence (P28482 whole entry): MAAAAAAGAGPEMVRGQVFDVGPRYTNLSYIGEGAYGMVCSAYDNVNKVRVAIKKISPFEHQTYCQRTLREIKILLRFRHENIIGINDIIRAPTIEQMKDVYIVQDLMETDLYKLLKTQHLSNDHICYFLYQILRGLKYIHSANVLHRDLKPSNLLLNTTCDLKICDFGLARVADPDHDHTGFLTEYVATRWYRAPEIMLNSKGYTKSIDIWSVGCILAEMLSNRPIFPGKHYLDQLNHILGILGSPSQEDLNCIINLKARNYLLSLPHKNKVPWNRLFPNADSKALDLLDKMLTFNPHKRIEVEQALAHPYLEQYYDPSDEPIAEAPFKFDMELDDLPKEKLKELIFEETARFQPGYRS
T4 sequence (O75676 whole entry): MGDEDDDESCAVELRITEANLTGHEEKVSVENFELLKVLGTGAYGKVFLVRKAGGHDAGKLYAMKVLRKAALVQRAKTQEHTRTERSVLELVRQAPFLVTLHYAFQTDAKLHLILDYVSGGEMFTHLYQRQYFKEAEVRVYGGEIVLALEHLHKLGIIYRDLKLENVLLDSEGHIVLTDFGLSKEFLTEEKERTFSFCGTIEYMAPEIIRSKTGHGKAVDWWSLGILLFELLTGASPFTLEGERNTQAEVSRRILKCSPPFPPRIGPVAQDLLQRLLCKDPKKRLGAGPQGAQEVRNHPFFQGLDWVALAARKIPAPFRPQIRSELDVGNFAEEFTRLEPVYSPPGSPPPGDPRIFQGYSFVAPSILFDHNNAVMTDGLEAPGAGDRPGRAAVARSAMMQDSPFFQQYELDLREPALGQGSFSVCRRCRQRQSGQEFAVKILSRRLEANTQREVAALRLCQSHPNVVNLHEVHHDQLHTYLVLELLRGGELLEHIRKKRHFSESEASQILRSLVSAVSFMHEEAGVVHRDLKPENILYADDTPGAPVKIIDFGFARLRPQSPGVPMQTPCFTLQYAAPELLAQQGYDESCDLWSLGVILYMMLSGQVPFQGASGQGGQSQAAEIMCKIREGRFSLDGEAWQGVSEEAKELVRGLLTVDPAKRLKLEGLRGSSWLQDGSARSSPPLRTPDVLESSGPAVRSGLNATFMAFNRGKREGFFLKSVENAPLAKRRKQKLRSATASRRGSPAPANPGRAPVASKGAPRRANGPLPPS
T6 sequence (Q04912 25-1400): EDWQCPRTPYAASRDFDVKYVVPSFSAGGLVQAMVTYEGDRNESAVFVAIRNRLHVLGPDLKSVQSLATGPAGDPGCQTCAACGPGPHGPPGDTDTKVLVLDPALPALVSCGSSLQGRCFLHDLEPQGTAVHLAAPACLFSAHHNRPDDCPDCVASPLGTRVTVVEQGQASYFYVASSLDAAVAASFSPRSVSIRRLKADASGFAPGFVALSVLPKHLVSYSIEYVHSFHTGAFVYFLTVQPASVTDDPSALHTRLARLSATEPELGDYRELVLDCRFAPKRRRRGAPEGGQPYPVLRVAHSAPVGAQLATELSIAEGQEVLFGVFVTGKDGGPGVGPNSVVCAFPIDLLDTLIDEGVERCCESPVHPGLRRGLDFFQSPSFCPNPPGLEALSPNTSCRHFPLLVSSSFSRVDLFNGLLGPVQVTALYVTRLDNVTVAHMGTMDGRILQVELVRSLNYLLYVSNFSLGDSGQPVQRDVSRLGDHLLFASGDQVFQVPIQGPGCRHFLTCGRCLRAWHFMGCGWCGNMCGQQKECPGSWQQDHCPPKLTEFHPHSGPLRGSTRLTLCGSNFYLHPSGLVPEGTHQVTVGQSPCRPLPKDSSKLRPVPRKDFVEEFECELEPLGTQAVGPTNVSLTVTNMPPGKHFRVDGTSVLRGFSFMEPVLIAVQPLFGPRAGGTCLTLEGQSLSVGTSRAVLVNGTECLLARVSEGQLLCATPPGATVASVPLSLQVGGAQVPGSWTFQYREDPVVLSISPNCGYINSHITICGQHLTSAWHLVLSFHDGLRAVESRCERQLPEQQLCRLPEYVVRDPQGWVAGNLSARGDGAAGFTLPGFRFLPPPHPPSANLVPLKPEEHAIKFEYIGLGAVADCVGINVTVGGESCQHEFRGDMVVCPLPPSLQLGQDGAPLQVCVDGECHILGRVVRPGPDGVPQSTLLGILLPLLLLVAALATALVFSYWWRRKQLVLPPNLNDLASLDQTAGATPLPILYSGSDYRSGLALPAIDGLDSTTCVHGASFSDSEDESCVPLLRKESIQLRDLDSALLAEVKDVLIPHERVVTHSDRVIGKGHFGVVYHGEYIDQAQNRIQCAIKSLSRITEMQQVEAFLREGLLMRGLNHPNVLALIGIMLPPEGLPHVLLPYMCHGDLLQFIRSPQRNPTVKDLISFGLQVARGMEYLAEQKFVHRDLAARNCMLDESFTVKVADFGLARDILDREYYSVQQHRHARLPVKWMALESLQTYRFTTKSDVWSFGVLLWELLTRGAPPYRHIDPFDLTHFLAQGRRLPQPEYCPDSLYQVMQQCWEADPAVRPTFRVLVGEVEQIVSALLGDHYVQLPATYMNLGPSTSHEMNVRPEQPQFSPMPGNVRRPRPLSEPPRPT
T7 sequence (Q9UQM7 whole entry): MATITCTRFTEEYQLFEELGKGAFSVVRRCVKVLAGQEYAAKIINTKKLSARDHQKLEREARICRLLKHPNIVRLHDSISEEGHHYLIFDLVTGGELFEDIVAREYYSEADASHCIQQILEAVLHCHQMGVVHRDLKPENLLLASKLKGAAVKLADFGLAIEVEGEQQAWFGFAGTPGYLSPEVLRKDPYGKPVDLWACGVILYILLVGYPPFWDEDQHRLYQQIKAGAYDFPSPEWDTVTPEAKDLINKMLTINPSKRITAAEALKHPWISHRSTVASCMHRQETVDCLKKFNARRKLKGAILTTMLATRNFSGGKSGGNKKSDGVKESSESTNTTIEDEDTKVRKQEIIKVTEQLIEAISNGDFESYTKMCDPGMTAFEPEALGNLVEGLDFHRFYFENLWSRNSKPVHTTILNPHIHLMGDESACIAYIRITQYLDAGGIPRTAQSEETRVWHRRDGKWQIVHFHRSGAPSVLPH

For the molecule `COc1cc(-c2cc(-c3cccc(O)c3)cnc2N)cc(OC)c1OC` [K02288, 3-[6-amino-5-(3,4,5-trimethoxy-phenyl)-pyridin-3-yl]-phenol], the inhibition at 0.1 µM in test [1] was -3%; in test [2] it was 0.5%; in test [3] it was -2%; in test [4], -1%; in test [5] it was 0.8%; in test [6], 3%. The inhibition at 0.1 µM in test [7] was -2%. Also, the inhibition at 1 µM in test [1] is 9.9%; in test [2], 19%; in test [3] it was -1%; in test [4] it was 1%; in test [5], 4.2%; in test [6] it was -1%. The inhibition at 1 µM in test [7] was -2%.

For `c1ccc2c(-c3cnn4cc(-c5ccc(N6CCNCC6)cc5)cnc34)ccnc2c1` [LDN-193189], the inhibition at 0.1 µM in test [1] was 2.6%; in test [2], 0.2%; in test [3], 5.6%; in test [4] it was 0.9%; in test [5], 0%; in test [6] it was -2%. Besides, the inhibition at 0.1 µM in test [7] amounted to 0%. For the same molecule, the inhibition at 1 µM in test [1] came out at 1.4%; in test [2], 4%; in test [3] it was 4.3%; in test [4], 0.8%; in test [5] it was 4.9%; in test [6], 12%. In addition, the inhibition at 1 µM in test [7] was -8%.
